# According to US20260373266A1, “PROTEIN DEGRADERS AND USES THEREOF” (KYMERA THERAPEUTICS, INC., priority 2022, published 2026):
# pKd: −log10 of the molar value.
# Target: T1, DCAF1 WD40 domain (residues 1077-1390) (Homo sapiens, UniProt Q9Y4B6)
# T1 construct: DCAF1 WD40 domain (residues 1077-1390)
# Experiment: DCAF1 binding assay by SPR (Biacore 8K+), DCAF1-3 KD
# Conditions: 25 °C, read-out: DCAF1-3 SPR (KD)
# T1 sequence (Q9Y4B6 1077-1390): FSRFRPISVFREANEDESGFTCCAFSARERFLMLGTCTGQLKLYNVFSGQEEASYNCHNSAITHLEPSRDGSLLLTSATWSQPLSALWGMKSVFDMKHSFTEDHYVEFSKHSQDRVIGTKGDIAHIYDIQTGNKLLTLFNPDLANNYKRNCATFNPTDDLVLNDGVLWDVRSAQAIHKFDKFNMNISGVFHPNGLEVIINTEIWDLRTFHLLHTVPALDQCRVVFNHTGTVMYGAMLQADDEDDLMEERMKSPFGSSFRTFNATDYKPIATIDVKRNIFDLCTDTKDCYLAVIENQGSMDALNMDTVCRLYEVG
row,pKd,SMILES
1,> 5.00,COCCOCC[C@@H]1CN(c2cc(N3CCCCC3)ccn2)[C@H]2CCCN(c3cccc(F)c3)[C@@H]12 [I-934]
2,> 5.00,OC[C@@H]1CC[C@H](Nc2cc(N3CCCCC3)ccn2)CN1c1cccc(F)c1 [I-1007]
3,< 3.70,Fc1cccc(N2CCC3CCCc4cnc(N5CCOCC5)cc4N[C@H]3C2)c1 (some centres unmarked) [I-226]
4,4.00 to 5.00,Nc1cnc(N2CCCCC2)nc1N[C@@H]1CCCN(c2cccc(F)c2)C1 [I-1001]
5,4.00 to 5.00,COC(=O)c1nc(N2CCC[C@@H](Nc3cc(N4CCOCC4)ccn3)C2)ccc1C [I-781]
6,4.00 to 5.00,Oc1ccc(N2CCC[C@@H](Nc3cncc(N4CCOCC4)c3)C2)cc1 [I-567]
7,> 5.00,Nc1ccc(F)cc1N1CCC[C@@H](Nc2cc(N3CCOCC3)ccn2)C1 [I-682]
8,3.70 to 4.00,c1cc2c(N3CCC[C@@H](Nc4cc(N5CCOCC5)ccn4)C3)nccc2cn1 [I-66]
9,< 3.70,NC(=O)C[C@H](NC(=O)c1c[nH]nc1-c1c(F)cccc1F)c1cccc(Cl)c1 [I-207]
10,> 5.00,C=CC(=O)NCC1CCN(c2ccnc(N3CC[C@H]4[C@@H]3CCCN4c3cccc(F)c3)c2)CC1 [I-671]
11,4.00 to 5.00,COc1ccc(F)cc1N1CCC[C@@H]2[C@H]1CCN2c1cc(N2CCCCC2)ccn1 [I-796]
12,< 3.70,NC(=O)C[C@](CC1CC1)(NC(=O)c1c[nH]nc1-c1ccccc1F)c1cccc(Cl)c1 [I-255]
13,> 5.00,Cc1c(F)ccc(F)c1-c1[nH]ncc1C(=O)N[C@@H](CC(=O)N1CC(O)C1)c1cccc(Cl)c1 [I-877]
14,< 3.70,NC(=O)C[C@H](NC(=O)c1[nH][nH]c(=O)c1-c1ccccc1F)c1cccc(Cl)c1 [I-548]
15,4.00 to 5.00,Cc1c(F)ccc(F)c1-c1[nH]ncc1C(=O)N[C@@H](CC(N)=O)c1ccc(F)c(Cl)c1 [I-819]
16,4.00 to 5.00,NC(=O)CCc1cccc(N2CCC[C@@H]3[C@H]2CCN3c2cc(N3CCCCC3)ccn2)c1 [I-879]
17,3.70 to 4.00,c1cnc2c(N3CCC[C@@H](Nc4nccc(N5CCOCC5)n4)C3)cccc2c1 [I-30]
18,< 3.70,C=CC(=O)N1CCc2[nH]nc(C(=O)N[C@@H](CC(N)=O)c3cccc(Cl)c3)c2C1 [I-300]
19,< 3.70,Fc1cccc([C@H]2CCC[C@@H](Nc3cc(N4CCOCC4)ncn3)C2)c1 [I-182]
20,< 3.70,c1cnc2ccc(N3CCC[C@@H](Nc4nccc(N5CCOCC5)n4)C3)cc2c1 [I-56]
21,4.00 to 5.00,Cn1cncc1N1CCC[C@@H](Nc2cc(N3CCOCC3)ccn2)C1 [I-773]

row,pKd,SMILES
1,< 3.70,C=CC(=O)N1CCN(c2ccnc(N[C@@H]3CCCN(c4cccc(F)c4)C3)c2)CC1 [I-446]
2,< 3.70,C=CC(=O)Nc1n[nH]cc1C(=O)N[C@@H](CC(N)=O)c1cccc(Cl)c1 [I-308]
3,< 3.70,NC(=O)C[C@H](NC(=O)c1c[nH]nc1-c1ccc2[nH]cnc2c1)c1cccc(Cl)c1 [I-240]
4,< 3.70,COCCc1[nH]nc(C(=O)N[C@@H](CC(N)=O)c2cccc(Cl)c2)c1-c1ccccc1F [I-330]
5,< 3.70,O=CNc1ccc(N2CCC[C@@H]3[C@H]2CCN3c2cc(N3CCCCC3)ccn2)cc1F [I-761]
6,< 3.70,NC(=O)C[C@H](NC(=O)c1c[nH]nc1-c1cccc2ccnn12)c1cccc(Cl)c1 [I-236]
7,< 3.70,O=C(CC1CC[C@@H](Nc2cc(N3CCOCC3)ccn2)CN1c1cccc(F)c1)Nc1cccc(Cl)c1 (some centres unmarked) [I-144]
8,4.00 to 5.00,C[C@H]1CCCN(c2ccnc(N[C@@H]3CCCN(c4cccc(F)c4)C3)c2)C1 [I-570]
9,< 3.70,Fc1cccc(N2CCCC(Nc3cc(N4CCOCC4)ccn3)C23CC(F)(F)C3)c1 (centres unmarked) [I-296]
10,< 3.70,NC(=O)C[C@H](NC(=O)c1cnn(CC2CCCC2)c1-c1ccccc1F)c1cccc(Cl)c1 [I-166]
11,4.00 to 5.00,OC[C@H]1C[C@@H](Nc2cc(N3CCCCC3)ccn2)CN(c2cccc(F)c2)C1 [I-936]
12,> 5.00,Cc1c(F)ccc(F)c1-c1c(C(=O)N[C@@H](CC(=O)N(C)C)c2cccc(Cl)c2)c[nH]c1C(=O)COCCOCCOCCOCCOCCN [I-822]
13,< 3.70,Fc1cccc(N2CCC[C@@H](Nc3cc(C4=CCOCC4)[nH]n3)C2)c1 [I-609]
14,> 5.00,C[C@@H]1[C@H](O)CCCN1c1ccnc(N2CC[C@@H]3[C@H]2CCCN3c2cccc(F)c2)c1 [I-832]
15,4.00 to 5.00,NC(=O)OCc1cc(F)cc(N2CCC[C@@H]3[C@H]2CCN3c2cc(N3CC4CC(C4)C3)ccn2)c1 [I-1036]
16,4.00 to 5.00,NC(=O)C[C@H](NC(=O)c1c[nH]cc1-c1ccccc1F)c1ccccc1Cl [I-96]
17,> 5.00,C=CC(=O)NCCC1CCN(c2ccnc(N3CC[C@H]4[C@@H]3CCCN4c3cccc(F)c3)c2)CC1 [I-672]
18,< 3.70,O=C1CC(C(NC(=O)c2cn[nH]c2-c2ccccc2F)c2cccc(Cl)c2)CN1 (centres unmarked) [I-561]
19,< 3.70,Cc1cccc(C(CC(N)=O)NC(=O)c2cn[nH]c2-c2ccccc2F)c1 (centres unmarked) [I-331]
20,< 3.70,C=CC(=O)N(C)C1CC(N(C)c2ccnc(N[C@@H]3CCCN(c4cccc(F)c4)C3)c2)C1 (some centres unmarked) [I-463]
21,> 5.00,Cc1ccccc1-c1[nH]ncc1C(=O)N[C@@H](CC(N)=O)c1cccc(Cl)c1 [I-104]

row,pKd,SMILES
1,4.00 to 5.00,c1cc(N2CCOCC2)cc(N[C@@H]2CCCN(c3ccc(CN4CCOCC4)cn3)C2)n1 [I-786]
2,4.00 to 5.00,OCCc1cccc(N2CCC[C@@H](Nc3cc(N4CCOCC4)ccn3)C2)c1 [I-861]
3,4.00 to 5.00,NC[C@@H]1CC[C@@H](Nc2cc(N3CCCCC3)ccn2)CN1c1cccc(F)c1 [I-1023]
4,4.00 to 5.00,CC1(C)CCCCN1c1ccnc(N[C@@H]2CCCN(c3cccc(F)c3)C2)c1 [I-658]
5,4.00 to 5.00,OC[C@H]1CC[C@@H](Nc2cc(N3CCCCC3)ccn2)CN1c1cccc(F)c1 [I-1008]
6,< 3.70,NC(=O)C[C@H](NC(=O)c1n[nH]nc1-c1ncccc1F)c1cccc(Cl)c1 [I-201]
7,< 3.70,NC(=O)C[C@H](NC(=O)c1cnn(CC2CCCCC2)c1-c1ccccc1F)c1cccc(Cl)c1 [I-165]
8,< 3.70,Cc1cc(Cl)cc([C@H](CC(N)=O)NC(=O)c2cn[nH]c2-c2c(C)cccc2F)c1 [I-737]
9,> 5.00,Cc1sc2c(c1C)C(c1ccc(Cl)cc1)=N[C@@H](CC(=O)NCCOCCOCCOCCOCCCc1ccc(C(=O)c3[nH]cc(C(=O)N[C@@H](CC(=O)N4CCN(C(=O)OCc5ccccc5)CC4)c4cccc(Cl)c4)c3-c3c(F)ccc(F)c3C)cc1)c1cnc(C)n1-2 [I-914]
10,4.00 to 5.00,CN(c1ccccc1)c1ccnc(N[C@@H]2CCCN(c3cccc(F)c3)C2)c1 [I-614]
11,< 3.70,CN1C[C@H](Nc2cc(N3CCOCC3)ccn2)CCC1CC(=O)Nc1cccc(Cl)c1 (some centres unmarked) [I-145]
12,< 3.70,CC(C(N)=O)[C@H](NC(=O)c1cn[nH]c1-c1ccccc1F)c1cccc(Cl)c1 (some centres unmarked) [I-141]
13,> 5.00,Cc1ccc(C(=O)c2[nH]cc(C(=O)N[C@@H](CC(N)=O)c3cccc(Cl)c3)c2-c2c(C)cccc2F)cc1 [I-625]
14,< 3.70,C=CC(=O)N(C)CCN(C)c1ccnc(N[C@@H]2CCCN(c3cccc(F)c3)C2)c1 [I-448]
15,< 3.70,Fc1cccc(N2CCC[C@@H](N(c3cccnc3)c3cc(N4CCOCC4)ccn3)C2)c1 [I-306]
16,> 5.00,Cc1sc2c(c1C)C(c1ccc(Cl)cc1)=N[C@@H](CC(=O)NCCOCCOCCOCCOCC(=O)c1[nH]cc(C(=O)N[C@@H](CC(N)=O)c3cccc(Cl)c3)c1-c1ccccc1F)c1nnc(C)n1-2 [I-896]
17,4.00 to 5.00,C=CC(=O)N1CCC2(CC1)CCN(c1ccnc(N[C@@H]3CCCN(c4cccc(F)c4)C3)c1)CC2 [I-642]
18,3.70 to 4.00,c1ccc2c(N3CCC[C@@H](Nc4cc(N5CCOCC5)ccn4)C3)nncc2c1 [I-65]
19,< 3.70,Cc1sc(N2CCC[C@@H](Nc3cc(N4CCOCC4)ccn3)C2)nc1-c1ccccc1 [I-411]
20,4.00 to 5.00,c1ccc(CN2CCc3ncnc(N4CCC[C@@H](Nc5cc(N6CCOCC6)ccn5)C4)c3C2)cc1 [I-870]
21,< 3.70,CCCN1CCN(c2ccnc(NC3CCCN(c4cccc(F)c4)C3)n2)CC1 (centres unmarked) [I-25]

row,pKd,SMILES
1,< 3.70,CN(C)C(=O)c1cccnc1N1CCC[C@@H](Nc2cc(N3CCOCC3)ccn2)C1 [I-784]
2,< 3.70,N#Cc1nccc(N2CCC[C@@H](Nc3cc(N4CCOCC4)ccn3)C2)n1 [I-414]
3,> 5.00,NC(=O)C[C@H](NC(=O)c1c[nH]c(C(=O)c2ccccc2)c1-c1c(F)c(F)cc(F)c1F)c1cccc(Cl)c1 [I-949]
4,< 3.70,Cc1ccccc1N1CCC[C@@H](Nc2cc(N3CCOCC3)ncn2)C1 [I-4]
5,4.00 to 5.00,NC(=O)Cc1ccc(F)c(-c2[nH]ncc2C(=O)N[C@@H](CC(N)=O)c2cccc(Cl)c2)c1 [I-521]
6,< 3.70,NCc1cccc(N2CCC[C@@H](Nc3cc(N4CCOCC4)ccn3)C2)c1 [I-866]
7,4.00 to 5.00,c1ccc([C@H]2CCC[C@@H](Nc3cc(N4CCCCC4)ccn3)C2)cc1 [I-754]
8,> 5.00,Cc1c(F)ccc(F)c1-c1cn(C)cc1C(=O)N[C@@H](CC(N)=O)c1cccc(Cl)c1 [I-924]
9,< 3.70,c1ccc2ncc(N3CCC[C@@H](Nc4nccc(N5CCOCC5)n4)C3)cc2c1 [I-46]
10,< 3.70,c1ccc2c(N3CCC[C@@H](Nc4cc(N5CCOCC5)ccn4)C3)n[nH]c2c1 [I-111]
11,3.70 to 4.00,Fc1cccc(N2CCC[C@@H](Nc3cc(N4CCOCC4)ncn3)C2)c1 [I-1]
12,< 3.70,NC(=O)C[C@H](NS(=O)(=O)c1c[nH]nc1-c1ccccc1F)c1cccc(Cl)c1 [I-252]
13,> 5.00,N#Cc1ccc([C@H](CC(N)=O)NC(=O)c2c[nH]nc2-c2ccccc2F)cc1 [I-118]
14,< 3.70,NC(=O)C[C@H](NC(=O)[C@@H]1CC[C@](O)(c2ccccc2)C1)c1cccc(Cl)c1 [I-444]
15,4.00 to 5.00,Fc1cccc(N2CCC[C@@H](Nc3cc(N4CCC5CCC4C5)ccn3)C2)c1 (some centres unmarked) [I-640]
16,3.70 to 4.00,c1cnc(N2CCC[C@@H](Nc3cc(N4CCOCC4)ccn3)C2)nc1 [I-69]
17,< 3.70,CC(=O)Nc1cccnc1N1CCC[C@@H](Nc2cc(N3CCOCC3)ccn2)C1 [I-430]
18,> 5.00,CN1CCN(CC2CCN(c3ccnc(N4CC[C@@H]5[C@H]4CCCN5c4cccc(F)c4)c3)CC2)CC1 [I-815]
19,4.00 to 5.00,N#Cc1ccc(-c2[nH]ncc2C(=O)N[C@@H](CC(N)=O)c2cccc(Cl)c2)cc1 [I-128]
20,< 3.70,COc1ccc(-c2[nH]ncc2C(=O)NC(C)C(=O)Nc2ccccc2)cc1 (centres unmarked) [I-838]
